Results: publication PMC7261929, “A New Family of Jumonji C Domain-Containing KDM Inhibitors Inspired by Natural Product Purpurogallin” (Frontiers in Chemistry, 2020)

Legend:
Format in all cases: biochemical
[1] = molecular target: T1, KDM4A (Homo sapiens, UniProt O75164); assay: fluorescence demethylase enzymatic assay, single dose […]
T1 sequence (O75164 2-1064): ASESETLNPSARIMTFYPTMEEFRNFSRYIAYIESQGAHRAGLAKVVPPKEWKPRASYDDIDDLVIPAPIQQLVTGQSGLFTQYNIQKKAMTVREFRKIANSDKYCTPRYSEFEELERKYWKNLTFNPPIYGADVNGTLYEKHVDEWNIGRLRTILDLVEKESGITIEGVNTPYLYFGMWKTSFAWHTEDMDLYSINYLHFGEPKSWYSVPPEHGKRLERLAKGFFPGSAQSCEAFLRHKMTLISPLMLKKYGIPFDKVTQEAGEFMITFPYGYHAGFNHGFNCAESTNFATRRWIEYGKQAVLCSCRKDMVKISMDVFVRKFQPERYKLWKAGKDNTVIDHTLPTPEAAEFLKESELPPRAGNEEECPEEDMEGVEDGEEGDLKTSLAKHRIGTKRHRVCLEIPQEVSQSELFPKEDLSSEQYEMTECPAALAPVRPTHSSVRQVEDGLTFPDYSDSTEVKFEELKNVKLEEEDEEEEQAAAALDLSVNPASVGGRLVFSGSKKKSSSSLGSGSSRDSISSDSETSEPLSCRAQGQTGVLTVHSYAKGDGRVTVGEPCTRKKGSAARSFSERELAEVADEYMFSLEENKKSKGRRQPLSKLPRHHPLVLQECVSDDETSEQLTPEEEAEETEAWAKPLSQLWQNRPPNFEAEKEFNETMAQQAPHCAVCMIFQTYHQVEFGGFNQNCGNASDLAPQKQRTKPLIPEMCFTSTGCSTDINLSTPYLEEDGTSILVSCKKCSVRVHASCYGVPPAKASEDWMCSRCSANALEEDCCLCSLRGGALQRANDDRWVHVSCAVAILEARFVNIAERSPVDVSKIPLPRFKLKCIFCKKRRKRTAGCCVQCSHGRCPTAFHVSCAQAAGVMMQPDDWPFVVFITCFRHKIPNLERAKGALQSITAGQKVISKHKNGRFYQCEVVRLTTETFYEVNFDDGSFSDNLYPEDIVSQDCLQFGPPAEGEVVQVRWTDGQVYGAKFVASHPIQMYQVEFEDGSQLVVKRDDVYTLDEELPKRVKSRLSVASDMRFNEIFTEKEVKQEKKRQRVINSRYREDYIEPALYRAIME

[2] = molecular target: T1, KDM4A; assay: KDM4A enzymatic screening assay and fluorescence assay at […]
[3] = molecular target: T2, KDM4D (Homo sapiens, UniProt Q6B0I6); assay: fluorescence demethylase enzymatic assay, dose curve
T2 construct: KDM4D-GST recombinant enzyme
T2 sequence (Q6B0I6 1-523): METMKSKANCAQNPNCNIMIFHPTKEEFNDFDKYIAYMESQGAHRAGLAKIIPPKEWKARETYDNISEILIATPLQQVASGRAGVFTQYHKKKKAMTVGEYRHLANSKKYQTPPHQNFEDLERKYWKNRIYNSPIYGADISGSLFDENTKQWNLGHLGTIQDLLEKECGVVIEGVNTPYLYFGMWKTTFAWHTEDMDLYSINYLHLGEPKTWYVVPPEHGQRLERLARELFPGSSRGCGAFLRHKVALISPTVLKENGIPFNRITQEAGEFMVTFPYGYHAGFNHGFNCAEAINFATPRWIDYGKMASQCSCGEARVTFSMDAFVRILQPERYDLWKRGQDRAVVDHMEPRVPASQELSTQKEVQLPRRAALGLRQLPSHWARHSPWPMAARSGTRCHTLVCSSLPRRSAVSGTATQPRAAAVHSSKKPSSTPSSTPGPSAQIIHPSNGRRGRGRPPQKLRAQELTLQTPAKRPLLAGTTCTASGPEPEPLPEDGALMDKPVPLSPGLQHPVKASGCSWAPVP

[4] = molecular target: T1, KDM4A; assay: AlphaLISA JMJD2A homogeneous demethylase assay, […] concentrations (fluorescence assay gave IC50 […])
[5] = molecular target: T3, KDM4C (Homo sapiens, UniProt Q9H3R0); assay: fluorescence demethylase enzymatic assay, dose curve
T3 construct: KDM4C-GST recombinant enzyme
T3 sequence (Q9H3R0 1-1056): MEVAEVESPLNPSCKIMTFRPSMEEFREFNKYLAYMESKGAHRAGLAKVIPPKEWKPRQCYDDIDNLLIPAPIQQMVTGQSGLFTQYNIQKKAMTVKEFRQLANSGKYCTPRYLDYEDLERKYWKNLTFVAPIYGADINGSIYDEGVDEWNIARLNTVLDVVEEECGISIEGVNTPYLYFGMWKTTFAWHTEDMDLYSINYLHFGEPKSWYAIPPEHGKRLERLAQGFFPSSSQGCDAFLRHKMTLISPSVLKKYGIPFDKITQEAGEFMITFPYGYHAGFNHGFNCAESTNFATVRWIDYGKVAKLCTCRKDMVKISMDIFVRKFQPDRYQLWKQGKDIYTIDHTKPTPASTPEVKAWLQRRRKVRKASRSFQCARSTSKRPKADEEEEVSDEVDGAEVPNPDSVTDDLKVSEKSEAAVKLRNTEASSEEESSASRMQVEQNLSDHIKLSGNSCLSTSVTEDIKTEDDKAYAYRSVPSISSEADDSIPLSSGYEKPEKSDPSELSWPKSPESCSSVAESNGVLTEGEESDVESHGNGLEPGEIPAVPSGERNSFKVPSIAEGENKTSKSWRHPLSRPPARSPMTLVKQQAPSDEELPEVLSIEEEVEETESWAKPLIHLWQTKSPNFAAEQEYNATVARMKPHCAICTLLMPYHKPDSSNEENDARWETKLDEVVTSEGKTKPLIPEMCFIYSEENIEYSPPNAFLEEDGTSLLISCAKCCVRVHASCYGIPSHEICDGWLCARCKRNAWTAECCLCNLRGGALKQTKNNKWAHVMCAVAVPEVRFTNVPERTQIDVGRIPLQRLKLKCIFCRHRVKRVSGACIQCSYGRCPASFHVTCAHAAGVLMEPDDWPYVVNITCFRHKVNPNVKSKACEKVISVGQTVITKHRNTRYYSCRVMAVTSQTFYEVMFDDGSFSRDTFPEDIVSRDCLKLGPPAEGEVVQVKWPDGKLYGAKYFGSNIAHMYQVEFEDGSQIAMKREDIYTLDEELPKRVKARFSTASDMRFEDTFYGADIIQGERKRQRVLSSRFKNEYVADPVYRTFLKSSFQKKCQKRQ

[6] = molecular target: T4, KDM4B (Homo sapiens, UniProt O94953); assay: as above
T4 construct: KDM4B-GST recombinant enzyme
T4 sequence (O94953 1-1096): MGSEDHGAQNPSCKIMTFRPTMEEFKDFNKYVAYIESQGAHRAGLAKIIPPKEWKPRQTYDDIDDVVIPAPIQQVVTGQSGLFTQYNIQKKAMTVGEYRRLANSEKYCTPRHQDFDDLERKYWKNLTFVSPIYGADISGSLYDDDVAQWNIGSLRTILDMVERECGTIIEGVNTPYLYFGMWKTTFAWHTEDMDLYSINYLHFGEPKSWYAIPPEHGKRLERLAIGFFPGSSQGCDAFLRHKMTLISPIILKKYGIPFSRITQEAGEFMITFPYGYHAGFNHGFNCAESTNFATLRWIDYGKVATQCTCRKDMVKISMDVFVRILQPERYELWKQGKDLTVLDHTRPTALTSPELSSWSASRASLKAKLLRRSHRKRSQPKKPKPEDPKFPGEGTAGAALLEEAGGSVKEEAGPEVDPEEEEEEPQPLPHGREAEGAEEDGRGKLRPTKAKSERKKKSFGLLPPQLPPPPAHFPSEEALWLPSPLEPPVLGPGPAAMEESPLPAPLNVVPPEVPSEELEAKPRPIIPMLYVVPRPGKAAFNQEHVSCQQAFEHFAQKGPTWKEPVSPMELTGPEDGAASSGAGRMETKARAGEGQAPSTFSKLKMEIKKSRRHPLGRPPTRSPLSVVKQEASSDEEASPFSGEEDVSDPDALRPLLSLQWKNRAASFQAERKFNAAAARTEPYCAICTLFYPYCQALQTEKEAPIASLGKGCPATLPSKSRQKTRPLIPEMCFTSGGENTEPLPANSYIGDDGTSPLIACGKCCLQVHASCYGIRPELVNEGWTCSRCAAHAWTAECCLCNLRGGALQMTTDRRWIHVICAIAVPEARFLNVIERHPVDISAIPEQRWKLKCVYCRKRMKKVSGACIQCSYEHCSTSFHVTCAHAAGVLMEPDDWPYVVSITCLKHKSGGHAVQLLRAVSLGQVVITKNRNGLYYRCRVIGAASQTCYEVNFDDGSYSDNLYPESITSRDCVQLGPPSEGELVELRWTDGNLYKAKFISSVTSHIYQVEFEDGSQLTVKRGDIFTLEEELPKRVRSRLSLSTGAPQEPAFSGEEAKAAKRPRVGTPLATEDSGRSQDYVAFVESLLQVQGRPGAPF

O=c1c(O)cccc2c(Br)cc(O)c(O)c12 [9ac, 1-bromo-3,4,6-trihydroxy-5H-benzo[7]annulen-5-one]
inhibition at 50 µM [1]: 50%

O=c1c(O)cccc2cc(O)c(O)c(O)c12 [9aa, 2,3,4,6-tetrahydroxy-5H-benzo[7]annulen-5-one]
KDM4A enzymatic screening assay and fluorescence assay at 50 μM [2]: Purpurogallin 9aa

O=C(O)c1cc(O)c(=O)c2c(O)c(O)cc(Br)c2c1 [9bc, 1-bromo-3,4,6-trihydroxy-5-oxo-5H-benzo[7]annulene-8-carboxylic acid]
inhibition at 50 µM [1]: 80%

O=C(O)c1cc(O)c(=O)c2c(O)c(O)cc(-c3ccccc3)c2c1 [9bf, 3,4,6-trihydroxy-5-oxo-1-phenyl-5H-benzo[7]annulene-8-carboxylic acid]
IC50 [3]: 28.5 µM
IC50 [4]: 10.1 µM
IC50 [5]: 38.9 µM
IC50 [6]: 35.9 µM
